In one data set the test system is human patients. To be noted: humans; cited from earlier work.
For data set [1], the system named is indomethacin-induced gastric irritation. The data set is described as follows: Rat model of indomethacin-induced gastric irritation. It counts as in vivo, Sprague-Dawley rats. The method, then:
Forty-five Sprague-Dawley rats (8-9 weeks-old, 227.6±6.30 g) were divided in three groups (P1, P2 and P3; n=9 each) to receive orally 0.5 mL/rat of the test treatments. Two control groups were studied as well. […] 15 minutes after the administration of the treatment, all animals were challenged with an oral administration of indomethacin (12.5 mg/kg) and sacrificed 4 hours later. Gastric mucosal injury was examined at a macroscopical and microscopical level. Macroscopic lesions were evaluated with Image J software. Microscopically, submucosal edema and microvascular injury were scored in H&E-stained preparations (Hematoxylin&Eosin-stained preparations). Measurements were blinded and performed by two independent observers and an inter-observer mean was calculated.

For the substance “Sucrose octasulfate-aluminum complex [sucralfate]”, the “other adverse effects (xerostomia, nausea, vomiting, headache, urticaria, rashes), incidence in patients” value in the data set on human patients is 0-5%. In addition, the “microvascular injury evaluation (score, mean±SEM)” value in data set [1] (H&E-stained fundic sections, Placebo 1.53±0.077, significant vs Placebo) turned out to be 0.94±0.123. Further, the “histological sections of the fundic stomach (findings)” value in data set [1] (microscopic evaluation, H&E-stained fundic sections) is given as “less severe lesions”. In data set [1] (oral 0.5 mL/rat 15 min before oral indomethacin 12.5 mg/kg, sacrificed 4 hours later, Placebo 1.37±0.260%, p<0.05 vs Placebo), the “percentage of hemorrhagic area related to the total gastric area (mean±SEM)” value is 0.41±0.154%. Further, the “hemorrhagic area (mean±SEM)” value in data set [1] (oral 0.5 mL/rat 15 min before oral indomethacin 12.5 mg/kg, sacrificed 4 hours later, Placebo 13.05±2.700, p<0.05 vs Placebo) is 4.28±1.495 mm^2.

The record behind these values is patent US20260041707A1, “GASTROINTESTINAL PROTECTANT COMPOSITION” (BIOIBERICA, S.A.U., priority 2022, published 2026).
